Measured values: patent US4069016A, “Assay for bilirubin” (priority 1977, dated 1978)
Read-outs that look alike come from different tables or passages of the source.

Assays:
Human Serum Albumin [1] = conditions: cited from earlier work
HSA [2] = target: T1, HSA (Homo sapiens, UniProt P02768); assay: Bromophenol blue-HSA binding and competitive displacement by bilirubin, ultrafiltration, 590 nm
T1 construct: purchased Pentex, Miles Laboratories, Inc
Excerpt: In this Example, a solution assay for bilirubin in accord with the method of the present invention is illustrated. […] Using an Amicon Ultraflo Membrane Cone CF-25 (having a molecular weight cutoff of 25,000 daltons) in an ultrafiltration technique as described by U. Kragh-Hansen et. al., Biochim. et Biophys.

HSA [3] = target: T1, HSA; assay: ANS-HSA complex solution assay, fluorescence (ANS binding and displacement by bilirubin)
Description: Where the detectable ligand used in the following Examples was a fluorescent probe, arbitrary fluorescence, F, was recorded both immediately before and after addition of bilirubin (B) to the complex. The difference in these F values (i.e. ΔF) was then expressed as a percentage value by arbitrarily designating the F value for the complex at 100 prior to addition of any bilirubin analyte to the complex (i.e. at zero B concentration). A series of Δ F values were then plotted for a given complex having a constant D/P ratio against a series of liquid test samples containing varying B concentrations. As a result, one obtained a calibration curve for that complex. A liquid test sample containing an unknown amount of B, could then be evaluated by the Δ F value for that sample using the calibrated complex and then locating this Δ F value on the previously prepared calibration curve for the complex.
In this Example, fluorescence of the ANS-albumin complex was obtained by exciting the complex at an excitation maximum of 386 nanometers. […] As is known, the fluorescent probe ANS is highly fluorescent when associated with albumin, but is non-fluorescent when free in solution.
The fluorescence of each of these individual test solutions was monitored as bilirubin-containing test samples were admixed into these individual solutions. […]

Human Serum Albumin [4] = conditions: cited from earlier work; for first order binding constant KA to human serum albumin: Kragh-Hansen et al. 1974
[5] = 435 nanometers; cited from earlier work
[6] = Molar absorptivity / extinction coefficient; assay type: physicochemical; conditions: at or near 590 nanometers
Excerpt: Among others, there are various direct spectrophotometric assay techniques for bilirubin which take advantage of the molar absorbtivity inherent in bilirubin. That is, bilirubin is a yellow pigment having a molar absorbtivity of about 5 × 10^4 as measured at 435 nanometers. However, although the molar absorbtivity of bilirubin is high enough to be useful in various direct spectrophotometric solution assay techniques, it is not sufficiently high to produce a quantitative assay for bilirubin using "dry chemistry" analytical test elements. Thus, present-day direct spectrophotometric assay techniques for bilirubin are generally limited to solution assay techniques, particularly if accurate, quantitative results are desired. […] In addition, other materials present in bilirubin-containing biological fluids such as human serum can also cause spectral interferences using such direct spectrophotometric assay methods.
In this Example, a solution assay for bilirubin in accord with the method of the present invention is illustrated. The assay of the present Example is similar to that described in Examples 1 and 2 above, except that the present Example illustrates the use of a colorimetric, rather than a fluorometric, assay using bromophenol blue indicator dye as the detectable ligand in the bilirubin-active complex. […]

T1 sequence (P02768 25-609): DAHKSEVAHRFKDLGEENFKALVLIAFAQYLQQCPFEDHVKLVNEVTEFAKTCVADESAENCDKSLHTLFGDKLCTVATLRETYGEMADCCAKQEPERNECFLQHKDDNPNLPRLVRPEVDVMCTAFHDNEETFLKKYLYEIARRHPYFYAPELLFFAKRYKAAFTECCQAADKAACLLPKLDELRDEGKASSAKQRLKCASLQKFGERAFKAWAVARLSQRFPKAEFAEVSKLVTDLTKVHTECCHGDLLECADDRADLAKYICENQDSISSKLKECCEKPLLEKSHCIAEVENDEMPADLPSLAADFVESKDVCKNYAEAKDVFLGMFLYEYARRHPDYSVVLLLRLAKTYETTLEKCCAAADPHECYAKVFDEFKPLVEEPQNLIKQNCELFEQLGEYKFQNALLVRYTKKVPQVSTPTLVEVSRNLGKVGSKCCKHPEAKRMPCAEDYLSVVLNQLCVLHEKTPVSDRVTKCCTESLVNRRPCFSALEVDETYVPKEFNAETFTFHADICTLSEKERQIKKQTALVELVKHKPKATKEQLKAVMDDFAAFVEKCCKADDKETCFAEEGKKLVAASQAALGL

For `C[C@]12CCC(=O)C=C1CC[C@@H]1[C@@H]2[C@@H](O)C[C@]2(C=O)[C@@H](C(=O)CO)CC[C@@H]12` [Aldosterone], the “Binding Constant of primary or high affinity site(s) KA” value (Human Serum Albumin [1]; pH 7.4, 5° C) is listed as < 5000 M⁻¹.
For `C=CC1=C(C)/C(=C/c2[nH]c(Cc3[nH]c(/C=C4\NC(=O)C(C)=C4C=C)c(C)c3CCC(=O)O)c(CCC(=O)O)c2C)NC1=O` [Bilirubin], the inhibition at 0.244 µg/mL (HSA [2]; pH 7.4, read-out: decrease in bromophenol blue binding to HSA, standard test solution about 0.0244 mg bilirubin per deciliter added) was ~33%, the “amount of bromophenol blue competitively displaced from the albumin carrier” value (HSA [2]; standard test solution approximately 10 mg bilirubin per deciliter, compared with 0.0244 mg/dl) was “substantially higher amount” and the “reduction in fluorescence of ANS/HSA complexes (displacement of ANS)” value (HSA [3]; 0.066 mg/dl bilirubin added, pH 7.4) was “drastic reduction in fluorescence”. For the same compound, the “extent of displacement of ANS from albumin (change in fluorescence) versus bilirubin” value (HSA [3]; 25 micromoles/l ANS, 15 micromoles/l HSA, bilirubin 0.03-0.33 mg/dl) was “quasi-linearly related to the amount of bilirubin added”, the “Binding Constant of primary or high affinity site(s) KA” value (Human Serum Albumin [1]; pH 7.4, 25° C) was 2.4e+08 M⁻¹ and the “Binding Constant of primary or high affinity site(s) KA” value (Human Serum Albumin [1]; pH 7.4, 37° C) was 1.4e+08 M⁻¹. The “first order binding constant KA to human serum albumin” value (Human Serum Albumin [4]) was “greater than 10^8 M^-1”, the Kd (Human Serum Albumin [4]; example given for comparison in Example 3, read-out: binding constant to albumin) was ~10 nM and the molar absorbtivity [5] was “about 5 × 10^4”.
For `O=C1NC(=O)C(c2ccccc2)(c2ccccc2)N1` [Dipheylhydantoin, reference compound], the “Binding Constant of primary or high affinity site(s) KA” value (Human Serum Albumin [1]; pH not given (--), 37° C) is listed as 6000 M⁻¹.
In the case of `C[C@]12CC[C@@H]3c4ccc(O)cc4CC[C@H]3[C@@H]1CC[C@@H]2O` [Estradiol], the “Binding Constant of primary or high affinity site(s) KA” value (Human Serum Albumin [1]; pH 7.4, 5° C) is listed as 100000 M⁻¹.
For `N[C@@H](Cc1cc(I)c(Oc2cc(I)c(O)c(I)c2)c(I)c1)C(=O)O` [L-thyroxine], the “Binding Constant of primary or high affinity site(s) KA” value (Human Serum Albumin [1]; pH 7.4, 24° C) is listed as 10^6 M^-1.
In the case of `N[C@@H](Cc1c[nH]c2ccccc12)C(=O)O` [L-tryptophan], the “Binding Constant of primary or high affinity site(s) KA” value (Human Serum Albumin [1]; pH 7.4, 2° C) is given as 16000 M⁻¹.
For `CC(=O)[C@H]1CC[C@H]2[C@@H]3CCC4=CC(=O)CC[C@]4(C)[C@H]3CC[C@]12C` [Progesterone], the “Binding Constant of primary or high affinity site(s) KA” value (Human Serum Albumin [1]; pH 7.4, 5° C) is given as 37000 M⁻¹.
For `O=C(O)c1ccccc1` [Sodium benzoate], the “Binding Constant of primary or high affinity site(s) KA” value (Human Serum Albumin [1]; pH 7.4, 37° C) is given as 1700 M⁻¹.
For `Nc1ccc(S(=O)(=O)Nc2ncccn2)cc1` [Sulfadiazine, reference compound], the “Binding Constant of primary or high affinity site(s) KA” value (Human Serum Albumin [1]; pH 7.4, 37° C) is given as 820 M⁻¹.
In the case of `Cc1noc(NS(=O)(=O)c2ccc(N)cc2)c1C` [Sulfisoxazole, reference compound], the “Binding Constant of primary or high affinity site(s) KA” value (Human Serum Albumin [1]; pH 7.4, 37° C) is listed as 19000 M⁻¹.
For `C[C@]12CC[C@H]3[C@@H](CCC4=CC(=O)CC[C@@]43C)[C@@H]1CC[C@@H]2O` [Testosterone], the “Binding Constant of primary or high affinity site(s) KA” value (Human Serum Albumin [1]; pH 7.4, 25° C) is given as 42000 M⁻¹.
For `O=c1[nH]c(=O)c2[nH]c(=O)[nH]c2[nH]1` [Urate], the “Binding Constant of primary or high affinity site(s) KA” value (Human Serum Albumin [1]; pH 7.4, 37° C) is given as 300 M⁻¹.
In the case of `O=S1(=O)OC(c2cc(Br)c(O)c(Br)c2)(c2cc(Br)c(O)c(Br)c2)c2ccccc21` [bromophenol blue, reference compound], the Kd (HSA [2]) is reported as 500 nM, the “approximate maximum molar binding ratio of bromophenol blue to HSA” value (HSA [2]; 0.05 M sodium phosphate pH 7.4) is reported as “about 3.4” and the extinction coefficient [6] is reported as “approximately 78,000”.
In the case of `CCCCCCCCCCCCCCCC(=O)O` [palmitate], the “Binding Constant of primary or high affinity site(s) KA” value (Human Serum Albumin [1]; pH 7.4, 23° C) is given as 10^6 M^-1.
In the case of `O=S1(=O)OC(c2ccc(O)cc2)(c2ccc(O)cc2)c2ccccc21` [phenol red, reference compound], the “first order binding constant KA to human serum albumin” value (Human Serum Albumin [4]) is given as “about 10^4 M^-1”.
In the case of Gentamicin sulfate [reference compound], the “Binding Constant of primary or high affinity site(s) KA” value (Human Serum Albumin [1]; pH 7.4, 37° C) is given as < 10 M⁻¹.
For “Polymyzin B sulfate [reference compound]”, the “Binding Constant of primary or high affinity site(s) KA” value (Human Serum Albumin [1]; pH 7.4, 37° C) is listed as < 100 M⁻¹.
